According to patent publication US8901114B2, “Oxathiazine derivatives substituted with carbocycles or heterocycles, method for producing same, drugs containing said compounds, and use thereof” (Sanofi, priority 2011, dated 2014):

Target: human 11β-HSD1 microsome fraction (Homo sapiens, UniProt P28845)
Test: Enzymatic 11beta-HSD1 test (SPA-based detection)
Format: biochemical
Details: human 11β-HSD1 microsomes, [1,2-3H]-cortisone, NADPH, 37° C., 1 hour; read-out: IC50 (nM), Biological activity in nanomolar
Method: Enzymatic 11beta-HSD1 test:
First of all, 20 μl of the human 11β-HSD1 microsome fraction (0.2 μg of protein), prepared in 50 mM HEPES, 0.1% BSA (w/v), were applied to a plate with 384 wells. The test compounds (0.09 μl) were applied to the assay plate in 100% DMSO. The reaction was started by addition of 20 μl of [1,2-^3H]-cortisone (0.1 μCi/[…]) in assay buffer comprising 25 mM HEPES, 100 mM KCl, 5 mM NaCl, 2 mM MgCl2 and 0.25 mM NADPH. The plate was agitated at 37° C. for 1 hour. At the same time, a stop solution comprising 20 mg/ml SPA-PVT beads, 1.6 mg/ml monoclonal cortisol antibody and 0.01 mM SSR110887 (inhibitor from the Biovitrium patent) in 50 mM HEPES, 1 M NaCl and 1 M KCl was stirred at room temperature. To stop the reaction, 25 μl of the stop solution were added to each well. The plate was agitated gently at room temperature for 1 further hour and then centrifuged at 500 gav for […], in order that the SPA beads could settle out. […] The comparative compound was glycyrrhetinic acid.
Protein and radioactive substrate were dispensed with a Biomek FX unit (Beckman Coulter) for handling liquids. The test compounds were added with a Cybi-Well equipped with a 90 nl pin tool (CyBio).
Lit.: Solly S, Mundt S S, Zokian H J, Juy-Fang Ding G, Hermanowski-Vosatka A, Strulovici B and Zheng W. High-throughput screening of 11β-Hydroxysteroid dehydrogenase type 1 in scintillation proximity format.

human 11β-HSD1 microsome fraction, sequence (P28845 whole entry): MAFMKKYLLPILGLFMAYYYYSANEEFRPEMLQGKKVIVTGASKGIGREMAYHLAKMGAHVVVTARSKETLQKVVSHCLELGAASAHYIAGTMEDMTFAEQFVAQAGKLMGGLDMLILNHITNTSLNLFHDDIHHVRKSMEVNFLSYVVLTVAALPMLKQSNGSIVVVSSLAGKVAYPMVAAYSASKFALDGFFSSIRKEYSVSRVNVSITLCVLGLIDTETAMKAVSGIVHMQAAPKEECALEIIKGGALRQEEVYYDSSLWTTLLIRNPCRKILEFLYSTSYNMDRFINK

First: CC1(C)[C@@H]2CC[C@@]1(C)[C@H](NC1=NS(=O)(=O)C3CCCCC3O1)C2 (single isomer, unassigned) [Example 9]
Second: CC1(C)[C@@H]2CC[C@@]1(C)[C@@H](NC1=NS(=O)(=O)C3CCCCC3O1)C2 (stereo partly drawn) [Example 36, (1,1-Dioxo-4a,5,6,7,8,8a-hexahydro-1H-1lambda6-benzo[1,4,3]oxathiazin-3-yl)-((1R,2S,4R)-1,7,7-trimethyl-bicyclo[2.2.1]hept-2-yl)-amine]
The IC50 of the first is 12-fold lower: 5 nM for the first, 59 nM for the second. The first is the more potent here.

First: CC1(C)[C@@H]2CC[C@@]1(C)[C@H](NC1=NS(=O)(=O)C3CCCCC3O1)C2 (single isomer, unassigned) [Example 14]
Second: CC1(C)[C@@H]2CC[C@@]1(C)[C@H](O)[C@H]2NC1=NS(=O)(=O)C2CCCCC2O1 (stereo partly drawn) [Example 38, (1R,2S,3S,4S)-3-(1,1-Dioxo-4a,5,6,7,8,8a-hexahydro-1H-1lambda6-benzo[1,4,3]oxathiazin-3-ylamino)-1,7,7-trimethyl-bicyclo[2.2.1]heptan-2-ol]
The IC50 of the first is 2.4-fold lower: 236 nM for the first, 570 nM for the second. The first is the more potent here.

First: CC12CCC(NC3=NS(=O)(=O)[C@H]4CCCC[C@H]4O3)(CC1)CC2 [Example 5, ((4aR,8aS)-1,1-Dioxo-4a,5,6,7,8,8a-hexahydro-1H-1lambda6-benzo[1,4,3]oxathiazin-3-yl)-(4-methyl-bicyclo[2.2.2]oct-1-yl)-amine]
Second: CC12CCC(NC3=NS(=O)(=O)[C@@H]4CCCC[C@@H]4O3)(CC1)CC2 [Example 13, ((4aS,8aR)-1,1-Dioxo-4a,5,6,7,8,8a-hexahydro-1H-1lambda6-benzo[1,4,3]oxathiazin-3-yl)-(4-methyl-bicyclo[2.2.2]oct-1-yl)-amine]
The IC50 of the first is 1.6-fold higher: 8 nM for the first, 5 nM for the second.

`CC1CC(NC2=NS(=O)(=O)C3CCCCC3O2)CC(C)(C)C1` (stereo not shown) [Example 23, (1,1-Dioxo-4a,5,6,7,8,8a-hexahydro-1H-1lambda6-benzo[1,4,3]oxathiazin-3-yl)-(3,3,5-trimethyl-cyclohexyl)-amine] and `C[C@@H]1[C@@H](NC2=NS(=O)(=O)C3CCCCC3O2)C[C@H]2C[C@@H]1C2(C)C` (stereo partly drawn) [Example 56, (1,1-Dioxo-4a,5,6,7,8,8a-hexahydro-1H-1lambda6-benzo[1,4,3]oxathiazin-3-yl)-((1S,2S,3S,5R)-2,6,6-trimethyl-bicyclo[3.1.1]hept-3-yl)-amine] are within 1.5-fold of each other in IC50: 20 nM for the first, 16 nM for the second.

Going from `CC(C)C(NC1=NS(=O)(=O)C2CCCCC2O1)c1cccs1` (stereo not shown) [Example 25, (1,1-Dioxo-4a,5,6,7,8,8a-hexahydro-1H-1lambda6-benzo[1,4,3]oxathiazin-3-yl)-(2-methyl-1-thiophen-2-yl-propyl)-amine] to `CC(C)CC(CC(C)C)NC1=NS(=O)(=O)C2CCCCC2O1` (stereo not shown) [Example 55, (1,1-Dioxo-4a,5,6,7,8,8a-hexahydro-1H-1lambda6-benzo[1,4,3]oxathiazin-3-yl)-(1-isobutyl-3-methyl-butyl)-amine], the IC50 rises from 121 nM to 670 nM (5.5-fold).

Going from `C[C@@H](NC1=NS(=O)(=O)C2CCCCC2O1)C1CCCCC1` (stereo partly drawn) [Example 29, ((R)-1-Cyclohexyl-ethyl)-(1,1-dioxo-4a,5,6,7,8,8a-hexahydro-1H-1lambda6-benzo[1,4,3]oxathiazin-3-yl)-amine] to `O=S1(=O)N=C(NC(C2CC2)C2CC2)OC2CCCCC21` (stereo not shown) [Example 39, Dicyclopropylmethyl-(1,1-dioxo-4a,5,6,7,8,8a-hexahydro-1H-1lambda6-benzo[1,4,3]oxathiazin-3-yl)-amine], the IC50 rises from 275 nM to 440 nM (1.6-fold).

`CC1(C)C2CCC1C(NC1=NS(=O)(=O)C3CCCCC3O1)C2O` (stereo not shown) [Example 41, 3-(1,1-Dioxo-4a,5,6,7,8,8a-hexahydro-1H-1lambda6-benzo[1,4,3]oxathiazin-3-ylamino)-7,7-dimethyl-bicyclo[2.2.1]heptan-2-ol] and `O=S1(=O)N=C(N[C@H]2CC[C@H](O)CC2)OC2CCCCC21` (stereo partly shown) [Example 81, 4-(1,1-Dioxo-4a,5,6,7,8,8a-hexahydro-1H-1lambda6-benzo[1,4,3]oxathiazin-3-ylamino)-cyclohexanol] are within 1.5-fold of each other in IC50: 497 nM for the first, 355 nM for the second.

Compared with `O=S1(=O)N=C(NCC2CCCCO2)OC2CCCCC21` (stereo not shown) [Example 47, (1,1-Dioxo-4a,5,6,7,8,8a-hexahydro-1H-1lambda6-benzo[1,4,3]oxathiazin-3-yl)-(tetrahydro-pyran-2-ylmethyl)-amine], `O=S1(=O)N=C(N[C@@H]2CCCC[C@H]2CO)O[C@H]2CCCC[C@H]21` [Example 59, [(1R,2R)-2-((4aS,8aR)-1,1-Dioxo-4a,5,6,7,8,8a-hexahydro-1H-1lambda6-benzo[1,4,3]oxathiazin-3-ylamino)-cyclohexyl]-methanol] is 4-fold higher in IC50: 165 nM for the first, 658 nM for the second.

Compared with `O=S1(=O)N=C(NC2CCSc3ccccc32)OC2CCCCC21` (stereo not shown) [Example 48, (1,1-Dioxo-4a,5,6,7,8,8a-hexahydro-1H-1lambda6-benzo[1,4,3]oxathiazin-3-yl)-thiochroman-4-yl-amine], `O=S1(=O)N=C(N[C@@H]2C[C@H]3CC[C@@H]2C3)OC2CCCCC21` (stereo partly drawn) [Example 62, (1R,2R,4S)-Bicyclo[2.2.1]hept-2-yl-((5S,6R)-1,1-dioxo-4a,5,6,7,8,8a-hexahydro-1H-1lambda6-benzo[1,4,3]oxathiazin-3-yl)-amine] is 2.2-fold lower in IC50: 93 nM for the first, 43 nM for the second. The second is the more potent here.

First: CC(C)[C@]12CC(NC3=NS(=O)(=O)C4CCCCC4O3)[C@H](C)[C@H]1C2 (stereo partly drawn) [Example 53, (1,1-Dioxo-4a,5,6,7,8,8a-hexahydro-1H-1lambda6-benzo[1,4,3]oxathiazin-3-yl)-((1S,4R,5R)-1-isopropyl-4-methyl-bicyclo[3.1.0]hex-3-yl)-amine]
Second: O=S1(=O)N=C(NC2CC[C@H]3CC[C@@H]2C3)OC2CCCCC21 (stereo partly drawn) [Example 54, (1R,5R)-Bicyclo[3.2.1]oct-2-yl-(1,1-dioxo-4a,5,6,7,8,8a-hexahydro-1H-1lambda6-benzo[1,4,3]oxathiazin-3-yl)-amine]
The IC50 of the first is 1.9-fold higher: 54 nM for the first, 29 nM for the second. The second is the more potent here.

Compared with `CC12CCC(NC3=NS(=O)(=O)C4CCCC4O3)(CC1)CC2` (stereo not shown) [Example 64, (1,1-Dioxo-1,4a,5,6,7,7a-hexahydro-1lambda6-cyclopenta[1,4,3]oxathiazin-3-yl)-(4-methyl-bicyclo[2.2.2]oct-1-yl)-amine], `O=S1(=O)N=C(NC23CCC(CC2)CC3)OC2CCCC21` (stereo not shown) [Example 72, Bicyclo[2.2.2]oct-1-yl-(1,1-dioxo-1,4a,5,6,7,7a-hexahydro-1lambda6-cyclopenta[1,4,3]oxathiazin-3-yl)-amine] is 1.9-fold higher in IC50: 38 nM for the first, 74 nM for the second. The first is the more potent here.

First: O=S1(=O)N=C(NN2CC3CCCC3C2)OC2CCCCC21 (stereo not shown) [Example 65, (1,1-Dioxo-4a,5,6,7,8,8a-hexahydro-1H-1lambda6-benzo[1,4,3]oxathiazin-3-yl)-(hexahydro-cyclopenta[c]pyrrol-2-yl)-amine]
Second: O=S1(=O)N=C(NN2CCCCCC2)OC2CCCCC21 (stereo not shown) [Example 66, Azepan-1-yl-(1,1-dioxo-4a,5,6,7,8,8a-hexahydro-1H-1lambda6-benzo[1,4,3]oxathiazin-3-yl)-amine]
The IC50 of the first is 2.1-fold higher: 308 nM for the first, 148 nM for the second.

In the case of `CC12CCCCC1S(=O)(=O)N=C(NC1CCCCC1)O2` (stereo not shown) [Example 89, Cyclohexyl-(4a-methyl-1,1-dioxo-4a,5,6,7,8,8a-hexahydro-1H-1lambda6-benzo[1,4,3]oxathiazin-3-yl)-amine], the IC50 is reported as 49 nM.
